Assay: Human HepG2 cell viability assay in 384 well format
Type: toxicity, cell-based
Set-up: dose 125 nL, time 70.5 hour; cytotoxicity at 70.5 h: concentration not given beside the values
Details: HepG2 cells, read-out: Inhibition

Row | SMILES | cytotoxicity at 70.5 h [%]
1 | O=C(c1cccc(C(F)(F)F)c1)N1CC(=O)N(C2CCC2)CC(O)C1 (configuration not stated) | -7.16
2 | CCN(CC)[C@H]1COC[C@@H]2CN(Cc3cnn(C)c3)C[C@@H]21 | -3.13
3 | Cc1cccc(N2CCN(C(=O)C3CC4(CCNCC4)CN3)CC2)n1 (configuration not stated) | 5.27
4 | CCOCC(=O)N1CCC(C(O)c2ccc(F)cc2)CC1 (configuration not stated) | 2.49
5 | O=C(c1ccco1)N1CCCC2(CCN(CCN3CCCC3)C2=O)C1 (configuration not stated) | -3.97
6 | COCc1cccc(NC(=O)NCc2ncc(C)c(OC)c2C)c1 | 0.253
7 | CC(COc1ccccc1)NCc1cn2ccccc2n1 (configuration not stated) | -4.87
8 | OC1CCCN(Cc2cn(CC3CCN(C4CCSCC4)CC3)nn2)C1 (configuration not stated) | -2.84
9 | Cc1nn(C)c(N(C)C)c1CNC(C)Cc1c(F)cccc1F (configuration not stated) | -16.6
10 | CC(C)N1CCC(C(=O)N2CCCN(c3ccccc3)CC2)CC1 | -8.78
11 | CC(C)N1CCCC(C(=O)N2CCc3c(nc(CC4CC4)[nH]c3=O)C2)C1 (configuration not stated) | 3.48
12 | Cc1cccnc1CN1CCN(C(=O)CCn2ccccc2=O)CC1 | 0.0273
13 | Cc1ccc(N2CC3(COCCN(Cc4ccccn4)C3)OCC2=O)s1 (configuration not stated) | -1.36
14 | CCSC(C)c1nc(-c2ccc(C)nn2)no1 (configuration not stated) | 4.73
15 | CCn1nc(C)cc1S(=O)(=O)N1CCC2(CCCN(C(C)C)C2=O)C1 (configuration not stated) | -1.6
16 | O=C(C1CC(=O)N(c2ccccc2Br)C1)N1CCCCCC1 (configuration not stated) | 11.2
17 | O=C(c1cccs1)N1C[C@H]2CCC[C@@]2(COCC2CCOCC2)C1 | 23.2
18 | CSc1ncc(C(=O)N2CCN(c3ccccc3C)CC2C)cn1 (configuration not stated) | -2.82
19 | Cc1ccnc(NC(=O)c2ccc(C)o2)c1 | 12.1
20 | Cc1ccc(CN(Cc2ccccn2)C2CC(C)(C)NC(C)(C)C2)s1 | -7.96
21 | Cc1cc(C)c2c(N(C)CC3COCCO3)ncnc2n1 (configuration not stated) | -8.16

Row | SMILES | cytotoxicity at 70.5 h [%]
22 | CC1(c2nccs2)CCN(C(=O)CC2CCOCC2)CC1 | -9.57
23 | O=C(NCCNc1cc(N2CCCC2)ncn1)c1cnccn1 | -7.66
24 | Cc1ncsc1C(=O)N(Cc1ccccn1)C1CC1 | 10
25 | O=C1CC2(CCN(Cc3cccnc3)C2)CN1c1cncnc1 (configuration not stated) | -2.69
26 | CC1CCN(CC(O)CNc2ccccn2)CC1 (configuration not stated) | -6.21
27 | CN(Cc1nc(Cc2cccc(C(F)(F)F)c2)no1)C(C1CC1)C1CC1 | -9.87
28 | CC(NC(=O)CCOc1ccc(F)cc1)c1nnc2n1CCCCC2 (configuration not stated) | 5.98
29 | CC(C)N1CCCn2nc(C(=O)NCCc3ccccn3)cc2C1 | -9.32
30 | Cc1cncc(NC(=O)c2ccc(CN3CCC(CO)CC3)cc2)c1 | -16.3
31 | CCN(CC)C(=O)CNC(=O)c1cnc(-c2ccccc2)nc1 | -2.98
32 | CN(C)C1COC2(CCN(C(=O)c3cccc(Cl)c3)CC2)C1 (configuration not stated) | -9.63
33 | CCN1CCn2cc(CNC(=O)c3cnn(C)c3)nc2C1 | -110
34 | CN1CCN(C2CCN(CCOc3ccc(F)cc3)CC2)C1=O | 18.4
35 | Cc1cc(N2CCN(C(=O)Cc3ccc4c(c3)OCO4)CC2)cc(C)n1 | -9.94
36 | Cc1cccc(C(=O)N2CC[C@H]3C[C@@H](C)O[C@@H]3C2)n1 | -19.7
37 | CC1CCc2n[nH]c(C(=O)NCCCc3ccco3)c2C1 (configuration not stated) | -2.37
38 | CCCN1CCCn2nc(CNS(=O)(=O)c3ccc(C)cc3)cc2C1 | -6.85
39 | CC(C)(C)c1cn(CC2CCCN(c3cnc4ccccc4n3)C2)nn1 (configuration not stated) | 0.262
40 | Cc1cc(C)c(CNC(=O)N(C)Cc2ccc(F)cc2)c(=O)[nH]1 | 18.3
41 | O=C1CCC2(CCCN(C(=O)c3ccoc3)C2)CN1Cc1ccncc1 (configuration not stated) | -16.8
42 | Cn1ccnc1CN1CCc2ncnc(N3CCCC3)c2CC1 | -3.33

Row | SMILES | cytotoxicity at 70.5 h [%]
43 | O=C(c1ccncc1F)N1CCc2ncnc(N3CCOCC3)c2CC1 | -9.98
44 | O=C(NCCNc1ncccn1)C1CCN(c2ncccn2)CC1 | -10.8
45 | CCc1ccc(C(=O)N2CCCCC2CNS(C)(=O)=O)o1 (configuration not stated) | -2.32
46 | Cc1occc1C(=O)N1CCCC2(CCN(c3ccccc3)C2=O)C1 (configuration not stated) | 12.9
47 | CN(C)C(=O)c1ccc(N2CCC3(CCC(=O)N(CCO)C3)CC2)nc1 | -2.34
48 | CN(C)C(=O)N1C[C@H]2CC[C@@H]1CN(C1Cc3ccccc3C1)C2 | -9.42
49 | Cc1cc(-c2nn(C)c(Cl)c2CN2CCCCC(N)C2)no1 (configuration not stated) | -1.48
50 | CCC(CO)N(Cc1ccsc1)CC1CC1 (configuration not stated) | -4.03
51 | Cc1cccc(CN2CCc3nnc(CN(C)C)n3CC2)n1 | -10.7
52 | CCS(=O)(=O)N1CCC2(CN(C(=O)c3cn(C)cn3)C2)C1 | 8.36
53 | COCCN1C[C@@H](C)[C@@]2(COCCN(C(=O)c3ccncc3)C2)C1 | -3.32
54 | CNS(=O)(=O)CC1CCCN1C(=O)c1cccc(Cl)c1 (configuration not stated) | -7.35
55 | Cn1cccc1C(=O)N1CCC(O)(CN2CCc3ccccc3C2)C1 (configuration not stated) | -4.98
56 | CC1(C)C[C@H](CCNC(=O)c2ccncc2)c2ccccc2O1 | -10
57 | Fc1cccc(C2(CNC3CCOC4(CCOCC4)C3)CCOCC2)c1 (configuration not stated) | -5.85
58 | Cc1nn(C)c(C)c1CN(C)C(=O)c1cccc(CCC(C)(C)O)c1 | -0.259
59 | COc1cc(NC(=O)c2ccc(C)cc2C)c(C(=O)N(C)C)cc1OC | 4.46
60 | N#Cc1cn[nH]c1NCc1cc(Br)ccc1O | -9.76
61 | c1ccc(O[C@@H]2CC[C@H]3[C@H]2OCCN3CC2CCOCC2)nc1 | 1.68
62 | CCS(=O)(=O)NCCNc1c(C#N)cnc2c(F)cc(F)cc12 | -0.0012
63 | COc1ccc(CN2CCC3(CC2)NC(=O)CC3c2ccncc2)cc1 (configuration not stated) | -7.29

Row | SMILES | cytotoxicity at 70.5 h [%]
64 | CCCc1ccc(N2CCN(Cc3nc4ccccc4n3C)CC2)cc1 | 19.9
65 | CC(=O)Nc1nc(-c2ccc(F)cc2)c[nH]1 | 36.5
66 | COCCN(Cc1ccc(F)cc1Cl)C(=O)c1ccc(=O)[nH]n1 | -3.15
67 | Cn1cc(N2CCCC(Oc3ccc(F)cc3Cl)C2=O)cn1 (configuration not stated) | -4.99
68 | O=S(=O)(c1ccccc1)N1CCN(Cc2ccc(F)cc2Br)CC1 | -8.77
69 | COc1cccc(S(=O)(=O)NC(=O)c2c(C)noc2C(C)C)c1 | -3.75
70 | COc1cc(F)c(C(C)NC(=O)c2cccnc2C)cc1OC (configuration not stated) | 2.35
71 | CN(CCC#N)C(=O)Cn1cnc2c(Br)cccc2c1=O | -1.58
72 | Cn1cnnc1-c1ccnc(NCc2ccccc2)c1 | -6.07
73 | O=C(Cn1nc2c(cc1=O)CCCC2)NC(C(=O)O)c1ccccc1 (configuration not stated) | -12.2
74 | CCc1ccc(C(=O)N2CCCC(n3nc(C)nc3C)C2)o1 (configuration not stated) | 13.2
75 | CCCc1nc(NC2(COC)CCCC2)c2cnn(C)c2n1 | -4.69
76 | CN(C)S(=O)(=O)N1CC[C@]2(O)CCN(c3ncccn3)C[C@@H]2C1 | -9.31
77 | Cc1ccc(S(=O)(=O)N2CCCC(c3n[nH]cc3C(=O)N(C)C)C2)cc1 (configuration not stated) | 9.91
78 | O=C(NC1CCc2nccn2C1)c1ccc(OCC2CC2)nc1 (configuration not stated) | -7.7
79 | CCCc1nnc(NC(C)c2ccc3c(c2)OCCO3)o1 (configuration not stated) | 19.1
80 | Cc1ccc(C(O)CNC(=O)c2cccnc2O)cc1 (configuration not stated) | -12.1
81 | CCN(Cc1ccc(OC)c(F)c1)C(=O)c1ccc(C)[nH]c1=O | -3.76
82 | CCOCCCNc1nc2c(s1)c(C)nn2C | -5.29

Source: ChEMBL document CHEMBL3507680, “University of Dundee, Gates Library screen for HepG2 cell viability”
